The structures appear in SMILES notation. Some results are limits rather than exact numbers.

Biological target in one assay: not listed separately
Kind of assay: Inhibition of FTase by SPA. Details: species or system Homo sapiens.
`CCc1nccn1C(c1ccc2c(c1)c(-c1cccc(Cl)c1)nc1nnnn12)c1cncn1C` (stereo not drawn): the IC50 came out at 5 nM.
For `Cn1cncc1C(N)(c1ccc2c(c1)c(-c1cccc(Cl)c1)nc1nnnn12)c1ccc(Cl)s1` (stereo not drawn), the IC50 was less than 100 nM.
The same measure, in the same setting: to `Cn1cncc1C(c1ccc2c(c1)c(-c1cccc(Cl)c1)nc1nnnn12)n1ccnc1-c1ccc(F)cc1` (stereo not drawn) belongs 4 nM.
The same measure, in the same setting: to `Cn1cncc1[C@](N)(c1ccc(Cl)cc1)c1ccc2c(c1)c(-c1cccc(Cl)c1)cc(=O)n2C` [(S)-TIPIFARNIB] belongs 0.9 nM.
Take `Cn1cncc1C(N)(c1ccc(Cl)cc1)c1ccc2c(c1)c(-c1cccc(Cl)c1)nc1nnnn12` (stereo not drawn): the IC50 came to 3.5 nM.
Same read-out and setting: to `Cn1cncc1C(N)(c1ccc(Cl)cc1)c1ccc2c(c1)c(-c1cccc(Cl)c1)cc1nnnn12` (stereo not drawn) belongs 3.5 nM.
Consider `Cn1cncc1C(c1ccc2c(c1)c(-c1cccc(Cl)c1)nc1nnnn12)n1ccnc1-c1cccc(C#N)c1` (stereo not drawn), for which the 50% inhibitory concentration (IC50) is 1 nM.
Still for that read-out and setting: to `Cn1cncc1C(O)(c1ccc2c(c1)c(-c1cccc(Cl)c1)nc1nnnn12)c1ccc(Cl)s1` (stereo not drawn) belongs 16 nM; to `N#Cc1ccc(Cn2cncc2C(O)c2ccc3c(c2)c(-c2cccc(Cl)c2)cc2nnnn23)cc1` (stereo not drawn), 11 nM; to `OC(c1ccc2c(c1)c(-c1cccc(Cl)c1)cc1nnnn12)c1cncn1Cc1ccc(Cl)cc1` (stereo not drawn), greater than 100 nM.
On the same count and under the same terms, to `Cn1cncc1C(c1ccc2c(c1)c(-c1cccc(Cl)c1)nc1nnnn12)n1ccnc1-c1ccccc1` (stereo not drawn) belongs 1 nM.

A further assay is filed under the species Homo sapiens. Description: Inhibition of FTase at 100 nM by SPA.
`Cn1cncc1C(N)(c1ccc2c(c1)c(-c1cccc(Cl)c1)nc1nnnn12)c1ccc(Cl)s1` (stereo not drawn) displayed an inhibition of 69%.
For the compound `OC(c1ccc2c(c1)c(-c1cccc(Cl)c1)cc1nnnn12)c1cncn1Cc1ccc(Cl)cc1` (stereo not drawn), the inhibition was 32%.
